Reference: patent publication US7348161B2, “Macrolide efflux genetic assembly” (Emory University, priority 2001, dated 2008)
In brackets after ≈: the same amount, converted by molar mass. Numbered stars: 1 amine (or outer) side, 2 acyl side, 3 side chain; on linkers, the order of the positions; unused ones are H or OH. Bridge positions count the residues as written; N and C are the ends. Square brackets hold non-standard residues; d marks the D form. Peptide text beside a SMILES is read from it. * marks the point of attachment. X1 = O=C1C[C@@H](C(=O)[*:2])N([*:1])C[C@H]1CS[C@@H]1CN2CCC1CC2; NMePhe(4-NMe2) = CN[C@@H](Cc1ccc(N(C)C)cc1)C(=O)O; Picolinoyl(3-OH) = O=C(c1ncccc1O)*; Phg = N[C@H](C(=O)O)c1ccccc1; dAbu = CC[C@@H](N)C(=O)O

Experiments:
[1] = test system: MefE; details: proton motive function of MefE; refs [9,10]; cited from earlier work
[2] = test system: S. pneumoniae isolates; assay: Antimicrobial susceptibility (NCCLS guidelines) of invasive S. pneumoniae isolates; format: cell-based; details: Streptococcus pneumoniae
[3] = test system: pneumococci containing ermAM; details: typical value; cited from earlier work
[4] = test system: invasive pneumococcal isolates; assay: Preliminary screening of 1998 invasive pneumococcal isolates for quinupristin resistance; format: cell-based, S. pneumoniae

Molecule: N#CC(C#N)=NNc1cccc(Cl)c1 [carbonylcyanide-m-chlorophenylhydrazone]
- Effect on efflux of [14C]-erythromycin [1]: decrease in the efflux

Molecule: CC[C@H]1OC(=O)[C@H](C)[C@@H](O[C@H]2C[C@@](C)(OC)[C@@H](O)[C@H](C)O2)[C@H](C)[C@@H](O[C@@H]2O[C@H](C)C[C@H](N(C)C)[C@H]2O)[C@](C)(O)C[C@@H](C)C(=O)[C@H](C)[C@@H](O)[C@]1(C)O [erythromycin]
- MIC ([2]; eighty-nine mefE-containing isolates, January 1994 to February 1996): ≥ 4 µg/mL
- MIC ([2]; subset of 336 erythromycin-resistant isolates, 1994-1996 and 1998): 4 µg/mL (≈ 5.45 µM)
- Erythromycin MIC [3]: 64 µg/mL

Molecule: CC[C@H]1NC(=O)[C@@H](NC(=O)c2ncccc2O)[C@@H](C)OC(=O)[C@H](c2ccccc2)NC(=O)[C@@H]2CC(=O)[C@H](CS[C@@H]3CN4CCC3CC4)CN2C(=O)[C@H](Cc2ccc(N(C)C)cc2)N(C)C(=O)[C@@H]2CCCN2C1=O [quinupristin] ({Picolinoyl(3-OH)}-T[dAbu]P[NMePhe(4-NMe2)][X1][Phg]; ester 1-C)
- Share of isolates resistant [4]: approximately half were resistant

Molecule: arsenate
- Effect on efflux of [14C]-erythromycin [1]: decrease in the efflux
